Test: Solubility in water as a function of pH
Format: physicochemical

solubility in water at low pH levels (low pH): dissolves relatively well
solubility in water at pH levels above 5 (pH above 5, definition of the European Pharmacopoeia): virtually insoluble
SMILES: CCCCCCOC(=O)NC(=N)c1ccc(NCc2nc3cc(C(=O)N(CCC(=O)OCC)c4ccccn4)ccc3n2C)cc1 [compound of formula I, ethyl 3-[(2-{[4-(hexyloxycarbonylamino-imino-methyl)-phenylamino]-methyl}-1-methyl-1H-benzimidazole-5-carbonyl)-pyridin-2-yl-amino]-propionate]

Reference: US9925174B2, “Administration form for the oral application of 3-[(2-{[4-(hexyloxycarbonyl-amino-imino-methyl)-phenylamino]-methyl}-1-methyl-1 H-benzimidazol acid ethyl ester and the salts thereof” (Boehringer Ingelheim International GmbH, priority 2002, dated 2018)
